Measured values from patent US20240067693A1, “POLYPEPTIDES AND USES THEREOF” (MEDIMMUNE LIMITED, priority 2020, published 2024).
Numbered stars: 1 amine (or outer) side, 2 acyl side, 3 side chain; on linkers, the order of the positions; unused ones are H or OH. Bridge positions count the residues as written; N and C are the ends. Square brackets hold non-standard residues; d marks the D form. Side chains are listed from the residue outwards. Peptide text beside a SMILES is read from it. * marks the point of attachment. C18 diacid = O=C(O)CCCCCCCCCCCCCCCCC(=O)*; γGlu = O=C(O)[C@H](CCC(=O)[*:2])N[*:1]; Aib = CC(C)(N)C(=O)O

How the values were obtained:
[1] = molecular target: T1, human calcitonin receptor (hCTR) (Homo sapiens, UniProt P30988); assay: cAMP production in 1321N1 cells with stable recombinant expression of human calcitonin receptor (hCTR); type: cell-based; conditions: cAMP, 1321N1 cells, assay buffer with 0.1% BSA; read-out: EC50 (pM) hCTR
T1 construct: expressed in transfected cells
T1 sequence (P30988 25-474): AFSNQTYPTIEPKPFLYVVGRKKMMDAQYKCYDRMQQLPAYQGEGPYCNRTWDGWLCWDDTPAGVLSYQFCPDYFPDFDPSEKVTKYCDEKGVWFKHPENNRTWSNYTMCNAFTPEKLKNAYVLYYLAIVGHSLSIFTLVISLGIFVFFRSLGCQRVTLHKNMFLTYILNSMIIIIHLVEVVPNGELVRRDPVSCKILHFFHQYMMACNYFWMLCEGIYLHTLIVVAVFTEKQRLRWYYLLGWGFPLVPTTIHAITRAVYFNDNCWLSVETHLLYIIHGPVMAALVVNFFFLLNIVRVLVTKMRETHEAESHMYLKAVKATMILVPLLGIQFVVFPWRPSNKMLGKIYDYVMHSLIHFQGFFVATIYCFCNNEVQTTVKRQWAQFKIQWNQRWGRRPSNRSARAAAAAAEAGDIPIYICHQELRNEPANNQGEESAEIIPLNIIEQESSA
Procedure, shortened: (§1)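 Receptor-expressing cells (human receptors in 1321N1, rat receptors in HEK) incubated 30 min at room temperature with peptide in HBSS/HEPES pH 7.4, 0.1% BSA, 0.5 mM IBMX. cAMP read by HTRF; EC50 from 4-parameter fit as % of maximal amylin or calcitonin response.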

[2] = in vivo; conditions: male, Sprague-Dawley, rat, 20 nmol/kg
[3] = molecular target: T2, rat amylin receptor (calcitonin receptor co-expressed with receptor activity modifying protein, RAMP3) (Rat AMYR3) (Rattus norvegicus, UniProt P32214+Q9JJ73); assay: cAMP production in HEK cells with stable recombinant expression of rat amylin receptor (Rat AMYR3); type: cell-based; conditions: assay buffer with 0.1% BSA
T2 construct: expressed in transfected cells
T2 sequence (P32214 25-516): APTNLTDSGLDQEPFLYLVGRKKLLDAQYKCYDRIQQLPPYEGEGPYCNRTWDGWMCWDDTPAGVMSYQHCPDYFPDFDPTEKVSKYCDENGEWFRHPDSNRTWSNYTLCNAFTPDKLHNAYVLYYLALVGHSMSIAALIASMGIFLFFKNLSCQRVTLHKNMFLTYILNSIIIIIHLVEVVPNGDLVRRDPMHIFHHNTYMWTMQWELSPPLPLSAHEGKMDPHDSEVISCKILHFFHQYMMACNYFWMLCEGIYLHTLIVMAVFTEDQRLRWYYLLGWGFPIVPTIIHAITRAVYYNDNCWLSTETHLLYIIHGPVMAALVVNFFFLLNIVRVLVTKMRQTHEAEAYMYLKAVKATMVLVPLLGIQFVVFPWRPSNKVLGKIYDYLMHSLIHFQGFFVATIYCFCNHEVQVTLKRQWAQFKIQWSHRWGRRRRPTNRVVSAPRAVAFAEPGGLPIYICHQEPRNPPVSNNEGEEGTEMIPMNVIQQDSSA
T2 sequence (Q9JJ73 23-147 partner): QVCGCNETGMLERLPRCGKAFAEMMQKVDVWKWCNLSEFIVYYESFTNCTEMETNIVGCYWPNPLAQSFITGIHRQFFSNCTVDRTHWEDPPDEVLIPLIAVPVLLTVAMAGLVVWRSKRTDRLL
Experimental: (§2) The functional activities of lipidated pramlintide analogue peptides, such as cAMP production, were tested in 1321N1 cell line with stable recombinant expression of human calcitonin receptor (hCTR) or human amylin receptor (calcitonin receptor co-expressed with receptor activity modifying protein, RAMP3) (hAMYR3) or HEK cells with stable recombinant expression of rat calcitonin receptor (rat CTR) or rat amylin receptor (calcitonin receptor co-expressed with receptor activity modifying protein, RAMP3) (Rat AMYR3).
(§3) Cryopreserved cell stock was thawed rapidly in a water-bath, suspended in assay buffer (0.1% BSA (Sigma # A3059) in HBSS (Sigma # H8264) with 25 mM HEPES, pH 7.4 and containing 0.5 mM IB MX (Sigma# 17018)) and spun at 240×g for 5 minutes. Cells were re-suspended in assay buffer at a batch-dependent optimized concentration (e.g. hCTR cells at 0.125×10^5 cells/mL, hAMYR3 cells at 0.125×10^5 cells/mL, rat CTR cells at 1x10^5 cells/mL, rat AMYR3 at 2×10^5 cells/mL).
(§4) The test peptide stock was prepared in DMSO and diluted in assay buffer to reach stated concentrations and transferred in duplicates into a 384-black shallow well microtitre assay plate (Corning # 3676). Cells were added to the assay plate, incubated at room temperature for 30 minutes and the cAMP level measured using cAMP dynamic 2 HTRF kit (Cisbio, Cat # 62AM4PEJ), following the two step protocol as per manufacturer's recommendations. The plates were read on an Envision (Perkin Elmer) using excitation wavelength of 320 nm and emission wavelengths of 620nm & 665 nm.
(§5) Data was transformed to % Delta F as described in the manufacturer's guidelines and analyzed as percent activation of maximal amylin or calcitonin effect by 4-parameter logistic fit to determine EC50 values. The selectivity of a peptide to hAMYR vs hCTR is defined as a ratio of EC50 values at the two receptors.

[4] = molecular target: T3, human amylin receptor (calcitonin receptor co-expressed with receptor activity modifying protein, RAMP3) (hAMYR3) (Homo sapiens, UniProt O60896+P30988); assay: cAMP production in 1321N1 cells with stable recombinant expression of human amylin receptor (hAMYR3); type: cell-based; conditions: for Ratio (selectivity hAMYR vs hCTR, ratio of EC50 values at the two receptors): EC50 hCTR / EC50 hAMYR3; for EC50: cAMP, 1321N1 cells, assay buffer with 0.1% BSA, read-out: EC50 (pM) hAMYR3
T3 construct: expressed in transfected cells
T3 sequence (P30988 25-474): T1 sequence (P30988 25-474)
T3 sequence (O60896 24-148 partner): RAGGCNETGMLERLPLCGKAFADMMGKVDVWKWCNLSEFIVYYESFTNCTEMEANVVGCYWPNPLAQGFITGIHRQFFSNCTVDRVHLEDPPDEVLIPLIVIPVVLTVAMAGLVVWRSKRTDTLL
Procedure, shortened: as §1

[5] = system: lean rats; assay: Rat acute food intake study; type: in vivo; conditions: lean male Sprague Dawley rats, 20 nmol/kg subcutaneously
Experimental: Male Sprague Dawley rats were obtained from Taconic Denmark, ApS at approximately 7 weeks of age. Rats were implanted with a microchip for identification, housed 4/cage with enrichment, free access to food and water, and allowed one week acclimatisation while non-invasive characterization was performed. Rats were on a 12:12 light:dark cycle that switches at 1pm:1am. Food intake was monitored via the HM2 system (Lafayette Instrument) that allows for monitoring in a home cage. As each rat enters an access tunnel to feed, an IR beam is broken, and the implanted microchip is read. Resulting changes to food weight is then assigned to the specific animal. Social order has shown no impact to overall feeding patterns and amounts.
Rats were sorted into groups based on Day -1 body weight and 24-hour accumulated food intake (n=7 per group). On Day 0 rats were weighed, then fasted for 6 hours. Thirty (30) minutes prior to the reintroduction of food, rats were dosed subcutaneously (5 mL/kg) with 20 nmol/kg of test compound or 60 nmol/kg peptide 1 (pramlintide) diluted in an appropriate vehicle, after which food was returned, and lights went out. Automated food intake was monitored for the following 3 days, and rats were weighed once per day.
Food intake per rat was batched into 1-hour intervals and integrated into Gubra's GubraView data management system. Discrete food intake data was exported into MS Excel from which cumulative food intake data was generated. Cumulative food intake data was then transposed into GraphPad Prism (v8.0.1) for analysis of dark period feeding

[6] = molecular target: T4, rat calcitonin receptor (rat CTR) (Rattus norvegicus, UniProt P32214); assay: cAMP production in HEK cells with stable recombinant expression of rat calcitonin receptor (rat CTR); type: cell-based; conditions: assay buffer with 0.1% BSA
T4 construct: expressed in transfected cells
T4 sequence (P32214 25-516): T2 sequence (P32214 25-516)
Experimental: as §2, §3, §4, §5

SMILES | EC50 [1] | half-life ([2]; iv) | half-life ([2]; sc) | EC50 [3] | Ratio (selectivity hAMYR vs hCTR, ratio of EC50 values at the two receptors) [4] | EC50 [4] | Cummulative food intake (% vehicle treated intake) At 12 h [5] | Cummulative food intake (% vehicle treated intake) At 24 h [5] | Cummulative food intake (% vehicle treated intake) At 48 h [5] | EC50 [6]
CC[C@H](C)[C@H](NC(=O)[C@@H]1CCCN1C(=O)CNC(=O)[C@H](Cc1ccccc1)NC(=O)[C@H](CC(N)=O)NC(=O)C(C)(C)NC(=O)[C@H](CO)NC(=O)[C@H](CO)NC(=O)[C@H](Cc1c[nH]cn1)NC(=O)[C@@H](NC(=O)[C@H](CC(C)C)NC(=O)[C@H](Cc1ccccc1)NC(=O)[C@H](CC(N)=O)NC(=O)[C@H](C)NC(=O)[C@H](CC(C)C)NC(=O)[C@H](CCCNC(=N)N)NC(=O)[C@H](CCC(N)=O)NC(=O)[C@@H](NC(=O)[C@H](C)NC(=O)[C@@H]1CSSC[C@H](NC(=O)[C@H](CCCCN)NC(=O)[C@@H](N)CCCCNC(=O)CC[C@H](NC(=O)CCCCCCCCCCCCCCCCC(=O)O)C(=O)O)C(=O)N[C@@H](CC(N)=O)C(=O)N[C@@H]([C@@H](C)O)C(=O)N[C@@H](C)C(=O)N[C@@H]([C@@H](C)O)C(=O)N1)[C@@H](C)O)C(C)C)C(=O)N[C@@H](CC(C)C)C(=O)N1CCC[C@H]1C(=O)N1CCC[C@H]1C(=O)N[C@H](C(=O)N[C@@H](CCC(=O)O)C(=O)N[C@H](C(=O)NCC(=O)N[C@@H](CO)C(=O)N[C@@H](CC(N)=O)C(=O)N[C@H](C(=O)N[C@@H](Cc1ccc(O)cc1)C(N)=O)[C@@H](C)O)C(C)C)[C@@H](C)O [Peptide 41, K(γE-C18diacid)K[CNTATC]ATQRLANFLVHSS(Aib)NFGPILPPTEVGSNTY-amide] (H-K([γGlu-C18 diacid])KCNTATCATQRLANFLVHSS[Aib]NFGPILPPTEVGSNTY-NH2; disulfide 3-8; N-terminus assumed) | 1180 pM | 8.3 h | 10.1 h | 8.2 pM | 7 | 178 pM | 44.6 % vehicle treated intake | 38.5 % vehicle treated intake | 58.8 % vehicle treated intake | 925 pM
CC[C@H](C)[C@H](NC(=O)[C@@H]1CCCN1C(=O)CNC(=O)[C@H](Cc1ccccc1)NC(=O)[C@H](CC(N)=O)NC(=O)C(C)(C)NC(=O)[C@H](CO)NC(=O)[C@H](CO)NC(=O)[C@H](Cc1c[nH]cn1)NC(=O)[C@@H](NC(=O)[C@H](CC(C)C)NC(=O)[C@H](Cc1ccccc1)NC(=O)[C@H](CC(N)=O)NC(=O)[C@H](C)NC(=O)[C@H](CC(C)C)NC(=O)[C@H](CCCNC(=N)N)NC(=O)[C@H](CCC(N)=O)NC(=O)[C@@H](NC(=O)[C@H](C)NC(=O)[C@@H]1CSSC[C@H](NC(=O)[C@H](CCCCN)NC(=O)[C@@H](N)CCCCNC(=O)CC[C@H](NC(=O)CCCCCCCCCCCCCCCCC(=O)O)C(=O)O)C(=O)N[C@@H](CC(N)=O)C(=O)N[C@@H]([C@@H](C)O)C(=O)N[C@@H](C)C(=O)N[C@@H]([C@@H](C)O)C(=O)N1)[C@@H](C)O)C(C)C)C(=O)N[C@@H](CC(C)C)C(=O)N1CCC[C@H]1C(=O)N1CCC[C@H]1C(=O)N[C@H](C(=O)N[C@@H](CC(N)=O)C(=O)N[C@H](C(=O)NCC(=O)N[C@@H](CO)C(=O)N[C@@H](CC(N)=O)C(=O)N[C@H](C(=O)N[C@@H](Cc1ccc(O)cc1)C(N)=O)[C@@H](C)O)C(C)C)[C@@H](C)O [Peptide 35, K(γE-C18diacid)K[CNTATC]ATQRLANFLVHSS(Aib)NFGPILPPTNVGSNTY-amide] (H-K([γGlu-C18 diacid])KCNTATCATQRLANFLVHSS[Aib]NFGPILPPTNVGSNTY-NH2; disulfide 3-8; N-terminus assumed) | 14200 pM | 5.4 h | 8.1 h | 5.9 pM | 55 | 259 pM | 49.8 % vehicle treated intake | 44.8 % vehicle treated intake | 72 % vehicle treated intake | 514 pM
